Paper PMC9977294, “A parasitic fungus employs mutated eIF4A to survive on rocaglate-synthesizing Aglaia plants” (eLife, 2023)
Values joined by “and” are separate entries in the source; they are usually repeats but may differ in a detail not shown here. Equal entries are not always repeated.

How the values were obtained:
C. sativus leaves = assay: Morphology of cucumber leaves sprayed with aglafoline; type: in vivo, Cucumis sativus; conditions: aglafoline 1 µM in water sprayed, 3 days
Description: Figure 4. Phenotypic comparison of the C. orbiculare eIF4A^WT and eIF4A^His153Gly strains during infection in the presence of rocaglate. (A) Workflow for monitoring the biomass of C. orbiculare eIF4A^WT or eIF4A^His153Gly strains on cucumber leaves under treatment with aglafoline. (B) Comparison of in planta fungal biomass of C. orbiculare eIF4A^WT or eIF4A^His153Gly strains with or without treatment with 1 µM aglafoline. Relative expression levels of the C. orbiculare 60 S ribosomal protein L5 gene (GenBank: Cob_v012718) normalized to that of a cucumber cyclophilin gene (GenBank: AY942800.1) were determined by RT–qPCR at 3 dpi (n = 8). The relative fungal biomasses of C. orbiculare were normalized to those of eIF4A^WT without aglafoline. Significance was calculated by Student’s t-test (two-tailed). […] Figure 4—source data 1. Files for the primary data corresponding to Figure 4B. Figure 4—figure supplement 1. Characterization of cucumber leaves treated with aglafoline. (A) C. sativus leaves were sprayed with DMSO or aglafoline (1 µM) in water and incubated for 3 days using the same method as C. orbiculare inoculation. Figure 4—figure supplement 1—source data 1. Files for the full and unedited pictures corresponding to Figure 4—figure supplement 1A. [drawing 12]

C. orbiculare eIF4A^WT = assay: In planta fungal biomass on cucumber cotyledons (RT-qPCR); type: in vivo, Colletotrichum orbiculare
Description: Fungal inoculation was performed as previously described ([Hiruma and Saijo, 2016]; [Kumakura et al., 2019]) with modifications. Cucumber cotyledons were used for C. orbiculare inoculation. Seeds of cucumber, Cucumis sativus Suyo strain (Sakata Seed Corp.), were planted on a mix of equal amounts of vermiculite (VS Kakou) and Supermix A (Sakata Seed Corp.). Cucumbers were grown at 24°C under a 10 hr light/14 hr dark cycle using biotrons (NK Systems). Cotyledons were detached from seedlings of cucumbers and inoculated with C. orbiculare at 13 days post-germination. C. orbiculare strains (eIF4A^WT#1 and eIF4A^H153G#1, Supplementary file 4) were cultured on 100 ml of 3.9% PDA in a 300 ml flask at 25°C for 6 days in the dark. […] The concentration of conidia was measured with disposable hemacytometers (Funakoshi) and adjusted to 10^5 conidia/ml with or without aglafoline (1 µM). […]
The living fungal biomass in cucumber leaves at 3.5 days postinoculation (dpi) was measured by RT-qPCR. Relative expression levels of the C. orbiculare 60S ribosomal protein L5 gene (GenBank: Cob_v012718) ([Gan et al., 2013]) normalized to that of a cucumber cyclophilin gene (GenBank: AY942800.1) ([Liang et al., 2018]) were determined. […]

[1] = tested on: C. orbiculare eIF4A^His153Gly; assay: as above; type: in vivo, Colletotrichum orbiculare; conditions: cucumber leaves; 1 µM aglafoline; 3 dpi; Figure 4B
Description: Fungal inoculation was performed as previously described ([Hiruma and Saijo, 2016]; [Kumakura et al., 2019]) with modifications. Cucumber cotyledons were used for C. orbiculare inoculation. Seeds of cucumber, Cucumis sativus Suyo strain (Sakata Seed Corp.), were planted on a mix of equal amounts of vermiculite (VS Kakou) and Supermix A (Sakata Seed Corp.). Cucumbers were grown at 24°C under a 10 hr light/14 hr dark cycle using biotrons (NK Systems). Cotyledons were detached from seedlings of cucumbers and inoculated with C. orbiculare at 13 days post-germination. C. orbiculare strains (eIF4A^WT#1 and eIF4A^H153G#1, Supplementary file 4) were cultured on 100 ml of 3.9% PDA in a 300 ml flask at 25°C for 6 days in the dark. Conidia that appeared on the surface of PDA were suspended in 20 ml of sterilized water, filtered through cell strainers (100 µm pore size, Corning), pelleted by centrifugation at 760 × g for 5 min, and resuspended in sterilized water. The concentration of conidia was measured with disposable hemacytometers (Funakoshi) and adjusted to 10^5 conidia/ml with or without aglafoline (1 µM). […]
Relative expression levels of the C. orbiculare 60S ribosomal protein L5 gene (GenBank: Cob_v012718) ([Gan et al., 2013]) normalized to that of a cucumber cyclophilin gene (GenBank: AY942800.1) ([Liang et al., 2018]) were determined. […]

[2] = tested on: Ophiocordyceps sp. BRM1 eIF4A Gly172His; assay: In vitro translation in RRL with complex-preformed mRNAs; type: biochemical; conditions: reporter mRNA with polypurine motifs preincubated with eIF4A and 9.1 µM RocA, free RocA removed; Figure 3B
Description: (§1) The DNA fragments PCR-amplified from psiCHECK2−7×AGAGAG motifs or psiCHECK2-CAA repeats ([Iwasaki et al., 2016]) were used as a template for in vitro transcription with a T7-Scribe Standard RNA IVT Kit ([…]). RNA was capped and poly(A) tailed with a ScriptCap m^7G Capping System, a ScriptCap 2′-O-Methyltransferase Kit, and an A-Plus Poly(A) Polymerase Tailing Kit ([…]).
(§2) Then, 4 µl of complex-preformed mRNA was incubated with 50% RRL (Promega) in a 10 µl reaction volume for 1 hr at 30°C, according to the manufacturer’s instructions. The fluorescence signal was detected using the Renilla-Glo Luciferase Assay System (Promega) and measured with the GloMax Navigator System (Promega). In the control experiments, instead of recombinant eIF4A proteins, storage buffer was used. Moreover, recombinant eIF4A proteins were added to the G-25 flowthrough solution in place of the storage buffer.

[3] = tested on: Ophiocordyceps sp. BRM1 eIF4A WT; assay: as above; type: biochemical; conditions: reporter mRNA with polypurine motifs preincubated with eIF4A and 9.1 µM RocA, free RocA removed; Figure 3B
Description: as §1, §2

| Compound | morphological alteration of cucumber leaves (C. sativus leaves) | in planta fungal biomass (C. orbiculare eIF4A^WT; cucumber leaves, 1 µM aglafoline, 3 dpi, Figure 4B) | In planta fungal biomass (Figure 4B source data), single replicates (C. orbiculare eIF4A^WT; eIF4AWT, aglafoline +, Replicate 1-8) | in planta fungal biomass [1] | translation of complex-preformed mRNA in RRL [2] | translation of complex-preformed mRNA in RRL [3] |
| --- | --- | --- | --- | --- | --- | --- |
| COC(=O)[C@H]1[C@@H](O)[C@@]2(O)c3c(OC)cc(OC)cc3O[C@@]2(c2ccc(OC)cc2)[C@@H]1c1ccccc1 [Aglafoline, methyl rocaglate] | no morphological alteration of the leaves was observed | reduced the biomass of the WT eIF4A-recombined strain on cucumber leaves | 0.01241 and 0.4556 and 0.03831 and 0.01038 and 0.09347 and 0.5781 and 0.1819 and 0.09019 | resulted in rocaglate resistance in the fungi | – | – |
| COc1ccc([C@@]23Oc4cc(OC)cc(OC)c4[C@]2(O)[C@H](O)[C@H](C(=O)N(C)C)[C@H]3c2ccccc2)cc1 [RocA, rocaglamide A] | – | – | – | – | could act as a translation repressor | could not alter translation |
